Measurements as given in patent US20240189449A1, “LIPID NANOPARTICLES AND POLYNUCLEOTIDES ENCODING ORNITHINE TRANSCARBAMYLASE FOR THE TREATMENT OF ORNITHINE TRANSCARBAMYLASE DEFICIENCY” (ModernaTX, Inc., priority 2021, published 2024).
Marks after values point to notes of the source that are not given here.

What was measured:
CD-1 mice [1] = test: hEPO expression in serum after IV lipid nanoparticles with hEPO mRNA, CD-1 mice; assay type: in vivo; conditions: LNP with DSPC, cholesterol, Compound I; for Mean 6 hr hEPO Concentration: serum 6 hours after injection
Method: To assess potency of expression and metabolic stability of lipids of the disclosure, hepatocyte protein expression (hEPO) was measured following administration to mice of a nanoparticle of the disclosure.
Lipid nanoparticles including DSPC as a phospholipid, cholesterol as a structural lipid, Compound I as a PEG lipid, an ionizable amino lipid of Formula (II), and an mRNA encoding hEPO were intravenously administered to CD-1 mice. The concentration of hEPO in serum was tested at 6 hours after injection.

CD-1 mice [2] = test: Parent lipid remaining in liver at 24 h, CD-1 mice (hEPO mRNA LNPs); assay type: in vivo; conditions: for Approx. Percent Total Dose of Parent Lipid Remaining at 24 h: calculation assumes a 25 g mouse with a 1.5 g liver

Structure (SMILES) | hEPO AUC (CD-1 mice [1]) | Mean 6 hr hEPO Concentration (CD-1 mice [1]) | Parent Lipid Remaining (nmol/g liver tissue) at 24 h (CD-1 mice [2]) | Approx. Percent Total Dose of Parent Lipid Remaining at 24 h (CD-1 mice [2])
CCCCCCCCC(CCCCCC)COC(=O)CCCCCN(CCCCCCCC(=O)OC(CC)CCCCCCCC)CCCNc1c(NC)c(=O)c1=O (stereo not drawn) [Compound 15] | 4.31E+07 | 2933644 mIU/mL | 51 ± 4 nmol/g liver tissue | 53%
CCCCCCCCC(CCCCCCCC)OC(=O)CCCCCCCN(CCCCCCCC(=O)OCC(CCCCC)CCCCCCC)CCCNc1c(NC)c(=O)c1=O (stereo not drawn) [Compound 16] | 2.18E+07 | 1461176 mIU/mL | 77 ± 3 nmol/g liver tissue | 79%
CCCCCCCCC(CCCCCCCC)OC(=O)CCCCCCCN(CCCCCCCC(=O)OCCC(CCCCCC)C(C)C)CCCNc1c(NC)c(=O)c1=O (stereo not drawn) [Compound 17] | 2.61E+07 | 1777875 mIU/mL | 35 ± 5 nmol/g liver tissue | 36%
CCCCCCCCC(CCCCCCCC)OC(=O)CCCCCCCN(CCCCCCCC(=O)OCC(CCCCCCC)C(C)C)CCCNc1c(NC)c(=O)c1=O (stereo not drawn) [Compound 19] | 3.11E+07 | 2089101 mIU/mL | 73 ± 6 nmol/g liver tissue | 75%
CCCCCCCCC(CCCCCCCC)OC(=O)CCCCCCCN(CCCCCCCC(=O)OCCC(CCCC)CCCCCC)CCCNc1c(NC)c(=O)c1=O (stereo not drawn) [Compound 20] | 2.13E+07 | 1414856 mIU/mL | 65 ± 5 nmol/g liver tissue | 67%
CCCCCCCCC(CCCCCCCC)OC(=O)CCCCCCCN(CCO)CCCCCCCC(=O)OCCC(CCCCCC)CCCCCC [Compound 21] | 7.29E+06 | 458772 mIU/mL | 13 ± 2 nmol/g liver tissue | 9%
CCCCCCC(CCCCCC)CCOC(=O)CCCCCCCN(CCO)CCCCCCCC(=O)OCCC(CCCCCC)CCCCCC [Compound 23] | 1.40E+07 | 847586 mIU/mL | 24 ± 3 nmol/g liver tissue | 18%
CCCCCCCCC(CCCCCCCC)OC(=O)CCCCCCCN(CCCCCCCC(=O)OCCC(CCCCCC)CCCCCC)CCCNc1c(NC)c(=O)c1=O [Compound 26] | 7.52E+06 | 496951 mIU/mL | 141 ± 15 nmol/g liver tissue | >95%^b
CCCCCCC(CCCCCC)CCOC(=O)CCCCCCCN(CCCCCCCC(=O)OCCC(CCCCCC)CCCCCC)CCCNc1c(NC)c(=O)c1=O [Compound 28] | 1.44E+07 | 938332 mIU/mL | 58 ± 7 nmol/g liver tissue | 60%
CCCCCCCCC(CCCCCCCC)OC(=O)CCCCCCCN(CCCCCCCC(=O)OCCC(CCCCC)CCCCC)CCCNc1c(NC)c(=O)c1=O [Compound 29] | 1.23E+07 | 808734 mIU/mL | 66 ± 16 nmol/g liver tissue | 68%
CCCCCCCCC(CCCCCCCC)OC(=O)CCCCCCCN(CCO)CCCCCCCC(=O)OCCCC(CCCCC)CCCCC [Compound 31] | 7.72E+06 | 517841 mIU/mL | 2 ± 0.6 nmol/g liver tissue | <0.1%
CCCCCCCCC(CCCCCCCC)OC(=O)CCCCCCCN(CCCCCCCC(=O)OCCCC(CCCCC)CCCCC)CCCNc1c(NC)c(=O)c1=O [Compound 32] | 1.63E+06 | 111656 mIU/mL | 69 ± 17 nmol/g liver tissue | 71%
CCCCCC(CCCCC)CCCOC(=O)CCCCCCCN(CCO)CCCCCCCC(=O)OCCCC(CCCCC)CCCCC [Compound 33] | 5.89E+06 | 389395 mIU/mL | 0.5 ± 0.3 nmol/g liver tissue | <0.1%
CCCCCC(CCCCC)CCCOC(=O)CCCCCCCN(CCCCCCCC(=O)OCCCC(CCCCC)CCCCC)CCCNc1c(NC)c(=O)c1=O [Compound 34] | 3.01E+06 | 205437 mIU/mL | 12 ± 2 nmol/g liver tissue | 12%
CCCCCCCCC(CCCCCCCC)OC(=O)CCCCCCCN(CCO)CCCCCCCC(=O)OCCC1CCC(CC)CC1 (stereo not drawn) [Compound 35] | 1.72E+06 | 106485 mIU/mL | <0.1 nmol/g liver tissue | <0.1%
CCCCCCCCC(CCCCCCCC)OC(=O)CCCCCCCN(CCO)CCCCCCCC(=O)OCCC1CCC(CC)C1 (stereo not drawn) [Compound 37] | 1.25E+06 | 85052 mIU/mL | <0.1 nmol/g liver tissue | <0.1%
CCCCCCCCC(CCCCCCCC)OC(=O)CCCCCCCN(CCCCCCCC(=O)OCCC1CCC(CCC)CC1)CCCNc1c(NC)c(=O)c1=O (stereo not drawn) [Compound 39] | 1.94E+06 | 129750 mIU/mL | 4 ± 1 nmol/g liver tissue | 4%
CCCCCCCCC(CCCCCCCC)OC(=O)CCCCCCCN(CCCCCCCC(=O)OCCC1CCC(CC)C1)CCCNc1c(NC)c(=O)c1=O (stereo not drawn) [Compound 40] | 4.64E+06 | 303957 mIU/mL | 3 ± 0.3 nmol/g liver tissue | 3%
CCCCCC(CCCCC)CCOC(=O)CCCCCCCN(CCCO)CCCCCCCC(=O)OCCC(CCCCC)CCCCC [Compound 42] | – | 1428145 mIU/mL | – | –
CCCCCC(CCCCC)CCOC(=O)CCCCCCCN(CCCCO)CCCCCCCC(=O)OCCC(CCCCC)CCCCC [Compound 44] | – | 1273871 mIU/mL | – | –
CCCCCCCCC(CCCCCCCC)OC(=O)CCCCCCCN(CCCO)CCCCCCCC(=O)OCCC(CCCC)CCCC [Compound 49] | – | 2385524 mIU/mL | – | –
CCCCCCCCC(CCCCCCCC)OC(=O)CCCCCCCN(CCCCO)CCCCCCCC(=O)OCCC(CCCC)CCCC [Compound 50] | – | 2617164 mIU/mL | – | –
CCCCCC(CCCCC)CCOC(=O)CCCCCCCN(CCCCCCCC(=O)OCCC(CCC)CCC)CCCNc1c(NC)c(=O)c1=O [Compound 51] | 1.31E+07 | 1556494 mIU/mL | 4 ± 0.6 nmol/g liver tissue | 4%
CCCCC(CCCC)CCOC(=O)CCCCCCCN(CCCCCCCC(=O)OCCC(CCC)CCC)CCCNc1c(NC)c(=O)c1=O [Compound 52] | 3.82E+06 | 564670 mIU/mL | <1 nmol/g liver tissue | <1%
CCCC(CCC)CCOC(=O)CCCCCCCN(CCCCCCCC(=O)OCCC(CCC)CCC)CCCNc1c(NC)c(=O)c1=O [Compound 53] | 6.63E+03 | 130324 mIU/mL | <1 nmol/g liver tissue | <1%
CCCCCC(CCCCC)CCOC(=O)CCCCCCCN(CCO)CCCCCCCC(=O)OCCC(CCC)CCC [Compound 67] | – | 969620 mIU/mL | – | –
CCCCCC(CCCCC)OC(=O)CCCCCCCN(CCO)CCCCCCCC(=O)OCCC(CCC)CCC [Compound 68] | – | 488014 mIU/mL | – | –
CCCCC(CCCC)CCOC(=O)CCCCCCCN(CCO)CCCCCCCC(=O)OCCC(CCCC)CCCC [Compound 69] | – | 1572094 mIU/mL | – | –
CCCCCC(CCCCC)OC(=O)CCCCCCCN(CCO)CCCCCCCC(=O)OCCC(CCCC)CCCC [Compound 70] | – | 1479577 mIU/mL | – | –
CCCCCCC(CCCCCC)OC(=O)CCCCCCCN(CCO)CCCCCCCC(=O)OCCC(CCC)CCC [Compound 71] | – | 1921281 mIU/mL | – | –
